# In patent US11583547B2, “Chemotherapy drug-sensitizing method, agent composition and use thereof” (FU JEN CATHOLIC UNIVERSITY, priority 2020, dated 2023):
# Experiments:
# Type in all cases: cell-based
# pancreatic cancer cells = assay: qPCR analysis of miR-1976 expression after gemcitabine induction; conditions: induction by gemcitabine; FIG. 1B
# Source text: FIGS. 1A and 1B are microRNA expression charts released in extracellular vesicle and intracellular obtained from micro array analysis and qPCR analysis applied in the chemotherapy drug-sensitizing method in accordance with the preferred embodiment of the present invention.
# [1] = system: AsPC-1 pancreatic cancer cells; assay: western blot of cell apoptosis marker (cleaved PARP) after antagomiR-1976 transfection; conditions: AsPC-1, antagomiR-1976 transfection; FIG. 4B
# Source text: (§1) FIGS. 4A and 4B are cell apoptosis charts of BxPC-3 and AsPC-1 pancreatic cancer cells with antagomiR-1976 transfection obtained from western blot analysis applied in the chemotherapy drug-sensitizing method in accordance with the preferred embodiment of the present invention. Referring now to FIG. 4A, by way of example, results of pancreatic cancer cell BxPC-3 applied in the chemotherapy drug-sensitizing method in accordance with the present invention are shown. Referring now to FIG. 4B, by way of example, results of pancreatic cancer cell AsPC-1 applied in the chemotherapy drug-sensitizing method in accordance with the present invention are shown.
# [2] = system: BxPC-3 pancreatic cancer cells; assay: as above; conditions: BxPC-3, antagomiR-1976 transfection; FIG. 4A
# Source text: as §1
Compound,amount of miR-1976 in pancreatic cancer cells (pancreatic cancer cells),amount of pancreatic cancer cell apoptosis marker (cleaved PARP) [1],amount of pancreatic cancer cell apoptosis marker (cleaved PARP) [2]
Nc1ccn([C@@H]2O[C@H](CO)[C@@H](O)C2(F)F)c(=O)n1 [gemcitabine],selectively increased,,
"5′-ACAGCAAGGAGGGCAGGAGG-3′ (listed as RNA, chemistry not given here) [antagomiR-1976]",,obviously increased,obviously increased
